Experimental data as given in patent US12195427B2, “MASP-2 inhibitors and methods of use” (priority 2018, dated 2025).
Structures can show the parent of a compound that is named as a salt.

Biological target: MASP-2 CCP2-SP (Homo sapiens (Human), UniProt O00187)
Experiment: MASP-2 co-crystallization, X-ray crystallography and structure analysis (H-bonds, van der Waals contacts);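 on Ligand-pharmacophore element distance, pharmacophore element C2: distance from averaged pharmacophore element to bound ligand; missing value means element absent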;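 on Ligand-pharmacophore element distance, pharmacophore element C3: distance from averaged pharmacophore element to bound ligand; missing value means element absent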;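 on Ligand-pharmacophore element distance, pharmacophore element C4: distance from averaged pharmacophore element to bound ligand; missing value means element absent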;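 on Ligand-pharmacophore element distance, pharmacophore element C5: distance from averaged pharmacophore element to bound ligand; missing value means element absent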
Parameters: van der Waals contact distance, MASP-2 HIS 483 atom CD2 / van der Waals contact distance, MASP-2 HIS 483 atom NE2 / van der Waals contact distance, SER 654 C to compound atom / van der Waals contact distance, SER 654 O to compound atom / van der Waals contact distance, TRP 655 C to compound atom / van der Waals contact distance, MASP-2 GLY 528 atom CA / van der Waals contact distance TRP 655 atom CZ3 / van der Waals contact distance TRP 655 atom N / van der Waals contact distance TRP 655 atom CE3 / van der Waals contact distance GLY 656 atom C / van der Waals contact distance GLY 656 atom CA / van der Waals contact distance GLY 656 atom O / van der Waals contact distance, MASP-2 TYR 607 atom CD1 / van der Waals contact distance, MASP-2 PRO 606 atom O / d(C3,CA1) / d(CA1,N1)2 / d(H4,O1) / d(H4,O2) / d(O1,O2) / d(CA1,O2) / d(CA6,O1) / d(CA6,O2) / d(CA1,C5) / d(O2,H3) / d(N2,C2) / d(CA5,N2) / d(N2,C4) / d(N2,C6) / d(N2,CA3) / d(N2,O3) / d(O4,H2): unit not given beside the values
Details: for H-bond distance to MASP-2 ASP 627 atom OD2: ASP 627 OD2; for H-bond distance to MASP-2 GLY 656 atom N: GLY 656 N; for H-bond distance to MASP-2 GLY 656 atom O: GLY 656 O; for H-bond distance to MASP-2 SER 654 atom O: SER 654 O; for H-bond distance to MASP-2 SER 657 atom O: SER 657 O; for van der Waals contact distance, SER 654 C to compound atom / van der Waals contact distance, VAL 653 CG1 to compound atom: Table A2-11; for van der Waals contact distance TRP 655 atom CE3: MASP-2 TRP 655 CE3, compound atom in line below; for Ligand-pharmacophore element distance, pharmacophore element C2 / Ligand-pharmacophore element distance, pharmacophore element C3 / Ligand-pharmacophore element distance, pharmacophore element C4 / Ligand-pharmacophore element distance, pharmacophore element C5 / Ligand-pharmacophore element distance, pharmacophore element C6 / Ligand-pharmacophore element distance, pharmacophore element C7 / Ligand-pharmacophore element distance, pharmacophore element CA1 / Ligand-pharmacophore element distance, pharmacophore element CA2 / Ligand-pharmacophore element distance, pharmacophore element CA3 / Ligand-pharmacophore element distance, pharmacophore element CA4 / Ligand-pharmacophore element distance, pharmacophore element CA5 / Ligand-pharmacophore element distance, pharmacophore element CA6: Table A4-1; for van der Waals contact distance SER 657 atom C: Table A2-14, MASP-2 SER 657 C, columns c12-c13 (inferred)
Procedure, shortened: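 Inhibitor complexes were obtained by soaking crystals of E. coli-expressed human MASP-2 CCP2-SP constructs, then flash-cooling in liquid nitrogen. Structures solved by molecular replacement (1Q3X search model) from synchrotron diffraction; where several poses existed, only one was analyzed, and nonbonded contacts listed can include H-bonds.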

[1] = Table A5-1 pharmacophore: distance between elements, S2/S1 region
[2] = Table A5-2 pharmacophore distance, S3/S4 region
[3] = Table A7-1, between pharmacophore elements of the bound compound
[4] = Table A7-2, between pharmacophore elements of the bound compound

MASP-2 CCP2-SP, sequence (O00187 445-686): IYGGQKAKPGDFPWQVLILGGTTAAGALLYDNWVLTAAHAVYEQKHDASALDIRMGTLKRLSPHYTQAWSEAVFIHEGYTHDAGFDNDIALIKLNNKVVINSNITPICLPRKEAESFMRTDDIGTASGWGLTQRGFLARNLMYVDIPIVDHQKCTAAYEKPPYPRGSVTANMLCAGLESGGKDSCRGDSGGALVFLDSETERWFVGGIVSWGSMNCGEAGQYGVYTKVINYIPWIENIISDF
MASP-2 CCP2-SP, sequence (O00187 364-432 partner): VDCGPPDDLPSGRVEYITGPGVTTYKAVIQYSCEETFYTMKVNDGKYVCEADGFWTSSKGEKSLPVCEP

## Cc1cnc(NCCc2ccccc2)c(=O)n1CC(=O)NCc1ccc2nc(N)[nH]c2c1 [compound 1492, N-((2-Amino-1H-benzo[d]imidazol-6-yl)methyl)-2-(6-methyl-2-oxo-3-(phenethylamino)pyrazin-1(2H)-yl)acetamide Trifluoroacetamide salt]
Table A1 (H-Bonds)
  H-bond distance to MASP-2 ASP 627 atom OD2: 3.32
  H-bond distance to MASP-2 GLY 656 atom N: 3.06
  H-bond distance to MASP-2 GLY 656 atom O: 2.7
  H-bond distance to MASP-2 SER 654 atom O: 2.78
  H-bond distance to MASP-2 SER 657 atom O: 2.72
Table A1 (H-Bonds), SER 657 OG
  H-bond distance to MASP-2 SER 657 atom OG: 2.62
Table A2-1
  van der Waals contact distance, MASP-2 HIS 483 atom CD2: 3.78
Table A2-4
  van der Waals contact distance, MASP-2 PRO 606 atom O: 3.81
Table A2-9 second part, ARG 630, AA atoms N, NE, NH1
  van der Waals contact distance, MASP-2 amino acid atom to compound atom: 3.71
  van der Waals contact distance, SER 654 C to compound atom: 3.88
  van der Waals contact distance, VAL 653 CG1 to compound atom: 3.61
  Ligand-pharmacophore element distance, pharmacophore element C2: 2.91
  Ligand-pharmacophore element distance, pharmacophore element C3: 0
  Ligand-pharmacophore element distance, pharmacophore element C4: 0
  Ligand-pharmacophore element distance, pharmacophore element C5: 0
  Ligand-pharmacophore element distance, pharmacophore element C6: 0
  Ligand-pharmacophore element distance, pharmacophore element C7: 0
  Ligand-pharmacophore element distance, pharmacophore element CA1: 1.7
  Ligand-pharmacophore element distance, pharmacophore element CA2: 0
  Ligand-pharmacophore element distance, pharmacophore element CA3: 0
  Ligand-pharmacophore element distance, pharmacophore element CA4: 0
  Ligand-pharmacophore element distance, pharmacophore element CA5: 0.84
  Ligand-pharmacophore element distance, pharmacophore element CA6: 0
Table A2-12
  van der Waals contact distance, TRP 655 C to compound atom: 3.7
Table A2-13
  van der Waals contact distance TRP 655 atom CE3: 3.74
Table A2 section before Table A2-8
  van der Waals contact distance, MASP-2 amino acid atom to compound atom: 3.86
[1]
  d(CA1,N1): 1.85
  d(CA1,O1): 4.66
  d(CA1,O2): 6.47
  d(CA6,O1): 3.43
  d(CA6,O2): 1.13
  d(H4,O1): 3.14
  d(H4,O2): 5.11
  d(O1,O2): 3.18
[2]
  d(O2,H3): 7.20
Table A6-1 pharmacophore angle
  a(CA1, O1, O2): 137.45
  a(O1, CA6, O2): 87.17
  a(O1, O2, H4): 143.64
Table A6-1 pharmacophore angle, all compounds with protonatable center N1 except Methyl-amino-pyridine
  A(N1, CA1, O1) a): 173.84
Table A6-2 pharmacophore angle
  a(O1, O2, H3): 153.97
[3]
  Pharmacophore torsion angle a(CA6, O1, H4, O2): −19.90
  Pharmacophore torsion angle a(H4, O1, O2, H3): 94.72
  Pharmacophore torsion angle a(N1, CA1, O2, H4): −132.36
  Pharmacophore torsion angle a(O1, H4, O2, CA1): −60.21

## N=C(N)c1ccc(CNC(=O)[C@@H]2CCN2C(=O)[C@H](NCC(=O)O)C2CCCCC2)cc1 [melagatran, reference compound]
Table A1 (H-Bonds), SER 628 OG
  H-bond distance to MASP-2 SER 628 atom OG: 2.75
Table A1 (H-Bonds)
  H-bond distance to MASP-2 SER 657 atom O: 2.84
Table A2-4
  van der Waals contact distance, MASP-2 TYR 607 atom CD2: 3.72
Table A2-5: TYR 607 (CE1, CE2, OH), PRO 608 (CD, CG), SER 611 (CA)
  van der Waals contact distance, MASP-2 amino acid atom to compound atom: 3.67
Table A2-9, ARG 630, AA atoms CG, CZ
  van der Waals contact distance, MASP-2 amino acid atom to compound atom: 3.8
Table A2-13, MASP-2 GLY 656 C
  van der Waals contact distance GLY 656 atom C: 3.42
Table A2-13
  van der Waals contact distance TRP 655 atom CE3: 3.75
Table A2-13, MASP-2 TRP 655 O
  van der Waals contact distance TRP 655 atom O: 3.39
  van der Waals contact distance SER 657 atom C: 3.77
Listed as Melagatran
  van der Waals contact distance SER 657 atom C: 3.68

## Cc1nc(N)ccc1CNC(=O)[C@H](C)NC(=O)[C@H]1C[C@H](Cc2cccc(-c3ccccc3)c2)CN1 [compound 1406, (2R,4S)-4-([1,1′-Biphenyl]-3-ylmethyl)-N—((S)-1-(((6-amino-2-methylpyridin-3-yl)methyl)amino)-1-oxopropan-2-yl)pyrrolidine-2-carboxamide Dihydrochloric acid]
Table A1 (H-Bonds)
  H-bond distance to MASP-2 ASP 627 atom OD2: 3.22
  H-bond distance to MASP-2 GLY 656 atom N: 3.28
  H-bond distance to MASP-2 GLY 656 atom O: 2.76
  H-bond distance to MASP-2 SER 654 atom O: 2.96
  H-bond distance to MASP-2 SER 657 atom O: 2.78
Table A2
  van der Waals contact distance, MASP-2 amino acid atom to compound atom: 3.74
Table A2-1
  van der Waals contact distance, MASP-2 ASP 526 atom C: 3.55
  van der Waals contact distance, MASP-2 ASP 526 atom CA: 3.89
  van der Waals contact distance, MASP-2 ASP 526 atom O: 3.69
  van der Waals contact distance, MASP-2 HIS 483 atom CD2: 3.7
  van der Waals contact distance, MASP-2 HIS 483 atom NE2: 3.67
Table A2-2
  van der Waals contact distance, MASP-2 ALA 527 atom C: 3.68
  van der Waals contact distance, MASP-2 ALA 527 atom CA: 3.83
Table A2-7: SER 628 (CB, O, OG)
  van der Waals contact distance, MASP-2 amino acid atom to compound atom: 3.76
  van der Waals contact distance, SER 654 C to compound atom: 3.59
  van der Waals contact distance, VAL 653 CG1 to compound atom: 3.27
  Ligand-pharmacophore element distance, pharmacophore element C2: 0
  Ligand-pharmacophore element distance, pharmacophore element C3: 0.12
  Ligand-pharmacophore element distance, pharmacophore element C4: 0
  Ligand-pharmacophore element distance, pharmacophore element C5: 0
  Ligand-pharmacophore element distance, pharmacophore element C6: 0
  Ligand-pharmacophore element distance, pharmacophore element C7: 0
  Ligand-pharmacophore element distance, pharmacophore element CA1: 0.56
  Ligand-pharmacophore element distance, pharmacophore element CA2: 0.42
  Ligand-pharmacophore element distance, pharmacophore element CA3: 0
  Ligand-pharmacophore element distance, pharmacophore element CA4: 1.59
  Ligand-pharmacophore element distance, pharmacophore element CA5: 0
  Ligand-pharmacophore element distance, pharmacophore element CA6: 0
Table A2-13
  van der Waals contact distance TRP 655 atom CE3: 3.7
Table A2-13, MASP-2 TRP 655 CZ3
  van der Waals contact distance TRP 655 atom CZ3: 3.51
Table A2-13, MASP-2 TRP 655 N
  van der Waals contact distance TRP 655 atom N: 3.85
[1]
  d(C3,CA1): 2.86
  d(CA1,N1)2: 1.38
  d(CA1,O1): 4.36
  d(CA1,O2): 4.00
  d(H4,O1): 4.35
  d(H4,O2): 3.89
  d(O1,O2): 3.29
[2]
  d(N2,CA2): 5.98
  d(O2,H3): 4.44
  d(O2,N2): 2.64
Table A6-1 pharmacophore angle
  a(C3, CA1, O1): 149.47
  a(CA1, O1, O2): 107.31
  a(O1, O2, H4): 133.28
Table A6-1 pharmacophore angle, Methyl-amino-pyridine compounds
  a(N1, CA1, O1) b): 173.92
Table A6-2 pharmacophore angle
  a(O1, O2, H3): 147.38
  a(O1, O2, N2): 140.17
  a(O2, N2, CA2): 156.30
[3]
  Pharmacophore torsion angle a(C3, CA1, O1, H4): 23.93
  Pharmacophore torsion angle a(H4, O1, O2, H3): 50.99
  Pharmacophore torsion angle a(H4, O1, O2, N2): 135.75
  Pharmacophore torsion angle a(N1, CA1, O1, H4): −2.51
  Pharmacophore torsion angle a(O1, H4, O2, CA1): −83.05
[4]
  Pharmacophore torsion angle a(O1, O2, N2, CA2): 127.54
  Pharmacophore torsion angle a(O1, O2, N2, CA4): 102.90
